In the supplement of paper PMC10307832:

Tests used:
Experiment in all cases: relative viability (nuclei count vs DMSO), 5 days (fraction); higher = more cells survive
ALW-II-49-7 = compound: Cc1ccc(C(=O)Nc2cccc(C(F)(F)F)c2)cc1Nc1cncc(C(N)=O)c1 [ALW-II-49-7]
How it was run: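 In 1536-well plates, lung cancer cell lines rested overnight at 37 °C before five library-drug doses (not always all listed), √10 apart, were pinned onto vehicle-anchored plates. Nuclei were counted with MetaXpress from 4× Hoechst images taken after 5 days without medium change. Viability compares treated-well with vehicle-well nuclei as a median over plates, and plates needed control CV below 25% plus at least one doubling to pass.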

XMD13-2 + Alpelisib = compound: C1CC1C(=O)NC2=NNC3=C2C=CC(=C3)C4=CC(=CC=C4)C(=O)NC5CC5 [XMD13-2] + Cc1nc(NC(=O)N2CCC[C@H]2C(N)=O)sc1-c1ccnc(C(C)(C)C(F)(F)F)c1 [Alpelisib] (partner 2 µM)
How it was run: (§1)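 Lung cancer cell lines, seeded in 1536-well plates, were treated the following day by pin tool with a single drug or with five library-drug doses (not always all listed) in √10 steps on top of a fixed anchor-drug dose. Cells were fixed and nuclei stained in one step after 5 days, and nuclei were counted. Relative viability is the nuclei count for treated wells divided by that for vehicle wells, reported as medians of duplicate plates.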

ALW-II-49-7 + Trametinib = compound: Cc1ccc(C(=O)Nc2cccc(C(F)(F)F)c2)cc1Nc1cncc(C(N)=O)c1 [ALW-II-49-7] + CC(=O)Nc1cccc(-n2c(=O)n(C3CC3)c(=O)c3c(Nc4ccc(I)cc4F)n(C)c(=O)c(C)c32)c1 [Trametinib] (partner 0.02 µM)
How it was run: as §1

ALW-II-49-7 + AZD7762 = compound: Cc1ccc(C(=O)Nc2cccc(C(F)(F)F)c2)cc1Nc1cncc(C(N)=O)c1 [ALW-II-49-7] + NC(=O)Nc1cc(-c2cccc(F)c2)sc1C(=O)N[C@H]1CCCNC1 [AZD7762] (partner 0.2 µM)
How it was run: as §1

Cell Line	relative viability (ALW-II-49-7; 0.08 µM)	relative viability (ALW-II-49-7; 0.253 µM)	relative viability (ALW-II-49-7; 0.8 µM)	relative viability (ALW-II-49-7; 2.53 µM)	relative viability (ALW-II-49-7; 8 µM)	relative viability (XMD13-2 + Alpelisib; first compound 0.05 µM)	relative viability (XMD13-2 + Alpelisib; first compound 0.1581 µM)	relative viability (XMD13-2 + Alpelisib; first compound 0.5 µM)	relative viability (XMD13-2 + Alpelisib; first compound 1.581 µM)	relative viability (XMD13-2 + Alpelisib; first compound 5 µM)	relative viability (ALW-II-49-7 + Trametinib; first compound 0.08 µM)	relative viability (ALW-II-49-7 + Trametinib; first compound 0.253 µM)	relative viability (ALW-II-49-7 + Trametinib; first compound 0.8 µM)	relative viability (ALW-II-49-7 + Trametinib; first compound 2.53 µM)	relative viability (ALW-II-49-7 + Trametinib; first compound 8 µM)	relative viability (ALW-II-49-7 + AZD7762; first compound 0.08 µM)	relative viability (ALW-II-49-7 + AZD7762; first compound 0.253 µM)	relative viability (ALW-II-49-7 + AZD7762; first compound 0.8 µM)	relative viability (ALW-II-49-7 + AZD7762; first compound 2.53 µM)	relative viability (ALW-II-49-7 + AZD7762; first compound 8 µM)
NCI-H838	0.945	0.901	0.903	0.982	0.918	1.14	1.04	1.01	1	1.06	0.631	0.531	0.433	0.49	0.453	0.921	1.04	0.889	0.702	0.886
NCI-H1355	0.939	0.963	0.953	0.957	0.928	0.924	0.888	0.843	0.777	0.776	0.371	0.467	0.474	0.384	0.438	0.71	0.805	0.738	0.695	0.606
NCI-H1395	0.941	0.992	1.1	0.917	0.851	1.3	1.07	0.976	0.984	1.1	0.906	1.1	1.3	–	0.938	0.381	0.43	0.364	–	0.362
NCI-H1437	0.985	0.989	0.973	0.994	0.947	0.935	1.06	0.955	0.796	1.05	0.486	0.573	0.332	0.512	0.509	1.02	1.15	1.01	0.99	0.873
NCI-H1651	1.09	0.923	0.956	0.952	0.943	1.19	0.899	0.942	0.913	1.02	0.839	0.772	0.824	0.781	0.808	0.465	0.466	0.474	0.397	0.317
NCI-H1666	0.988	0.943	0.92	1.24	1.04	1.02	1.07	0.936	0.874	0.879	0.864	0.927	0.865	0.948	0.803	0.858	0.855	0.822	0.839	0.77
NCI-H1734	0.933	1.04	1.01	0.886	0.822	0.887	0.577	0.662	0.576	0.565	0.641	0.749	0.668	0.622	0.593	0.588	0.562	0.544	0.483	0.55
NCI-H1755	0.975	1.03	1.02	0.968	0.897	0.928	0.915	0.928	0.92	0.965	0.724	0.879	0.786	0.747	0.681	0.543	0.497	0.379	0.432	0.382
